Laboratory results published in ChEMBL document CHEMBL5584244, “Discovery of novel pyrrolo[2,1-c][1,4]benzodiazepine-3,11-dione (PBD) derivatives as selective HDAC6 inhibitors for the efficient treatment of idiopathic pulmonary fibrosis (IPF) in vitro and in vivo” (Eur J Med Chem, 2024).
Active and inactive are the calls of the source. No cut-off for these calls is given here.

Tests used:
[1] = system: HELF; assay: Antifibrotic activity against TGF-beta1-induced HELF cells assessed as reduction in viability at 10 uM after 48 hrs by MTT assay; assay type: functional, cell-based; details: Homo sapiens
[2] = Cytotoxicity against HELF cells assessed as reduction in viability at 10 uM after 48 hrs by MTT assay; assay type: toxicity, cell-based; details: human
[3] = Cytotoxicity against HELF cells assessed as reduction in viability at 1 to 300 uM after 48 hrs under without FBS condition by MTT assay; assay type: toxicity, cell-based; details: human, dose 1-300 µM
[4] = biological target: Histone deacetylase 1 (Homo sapiens, UniProt Q13547); assay: Inhibition of human HDAC1 incubated for 10 mins and measured after 30 mins by ELISA
[5] = biological target: T1, Protein deacetylase HDAC6 (Homo sapiens, UniProt Q9UBN7); assay: Inhibition of human HDAC6 using Ac-Lys (Ac)-AMC as substrate incubated for 120 mins by fluorescence analysis
T1 sequence (Q9UBN7 whole entry): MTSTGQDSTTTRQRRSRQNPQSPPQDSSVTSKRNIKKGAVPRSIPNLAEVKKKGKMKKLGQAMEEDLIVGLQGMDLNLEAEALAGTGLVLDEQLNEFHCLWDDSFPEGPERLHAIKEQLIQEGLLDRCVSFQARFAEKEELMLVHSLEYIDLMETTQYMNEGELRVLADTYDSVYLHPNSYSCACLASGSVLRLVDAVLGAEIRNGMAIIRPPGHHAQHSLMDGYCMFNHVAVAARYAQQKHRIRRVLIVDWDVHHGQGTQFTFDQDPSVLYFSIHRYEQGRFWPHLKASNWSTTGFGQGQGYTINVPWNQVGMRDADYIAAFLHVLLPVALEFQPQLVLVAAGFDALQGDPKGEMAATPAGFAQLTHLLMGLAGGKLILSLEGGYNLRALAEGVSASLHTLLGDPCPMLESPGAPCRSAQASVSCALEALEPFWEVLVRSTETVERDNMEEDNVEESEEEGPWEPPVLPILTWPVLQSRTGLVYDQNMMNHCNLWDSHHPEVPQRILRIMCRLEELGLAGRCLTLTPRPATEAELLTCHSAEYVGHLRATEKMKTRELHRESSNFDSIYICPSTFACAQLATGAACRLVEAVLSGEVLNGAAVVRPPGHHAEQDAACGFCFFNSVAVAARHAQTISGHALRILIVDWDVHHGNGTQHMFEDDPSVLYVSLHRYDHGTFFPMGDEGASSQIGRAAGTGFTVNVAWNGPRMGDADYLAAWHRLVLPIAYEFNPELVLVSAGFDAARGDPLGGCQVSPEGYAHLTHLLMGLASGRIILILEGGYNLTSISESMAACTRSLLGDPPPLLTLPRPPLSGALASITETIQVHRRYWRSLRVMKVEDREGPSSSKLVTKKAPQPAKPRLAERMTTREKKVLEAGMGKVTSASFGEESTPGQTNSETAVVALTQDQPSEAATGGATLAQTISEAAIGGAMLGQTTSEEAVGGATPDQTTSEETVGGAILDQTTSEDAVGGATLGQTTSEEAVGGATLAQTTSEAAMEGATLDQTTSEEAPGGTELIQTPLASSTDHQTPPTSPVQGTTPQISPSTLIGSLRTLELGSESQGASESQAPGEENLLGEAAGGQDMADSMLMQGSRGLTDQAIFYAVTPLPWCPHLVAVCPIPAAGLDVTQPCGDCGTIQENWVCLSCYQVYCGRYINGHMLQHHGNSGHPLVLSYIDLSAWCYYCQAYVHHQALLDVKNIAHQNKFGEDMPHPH

[6] = organism: Homo sapiens; assay: Selectivity index, ratio IC50 inhibition of human HDAC1 to IC50 for inhibition of human HDAC6 using Ac-Lys (Ac)-AMC as substrate
[7] = biological target: T1, Protein deacetylase HDAC6; assay: Inhibition of recombinant human full length HDAC6 using Boc-Lys (Ac)-AMC as substrate incubated for 120 mins by fluorescence analysis

Sequence of Histone deacetylase 1 (Q13547 whole entry): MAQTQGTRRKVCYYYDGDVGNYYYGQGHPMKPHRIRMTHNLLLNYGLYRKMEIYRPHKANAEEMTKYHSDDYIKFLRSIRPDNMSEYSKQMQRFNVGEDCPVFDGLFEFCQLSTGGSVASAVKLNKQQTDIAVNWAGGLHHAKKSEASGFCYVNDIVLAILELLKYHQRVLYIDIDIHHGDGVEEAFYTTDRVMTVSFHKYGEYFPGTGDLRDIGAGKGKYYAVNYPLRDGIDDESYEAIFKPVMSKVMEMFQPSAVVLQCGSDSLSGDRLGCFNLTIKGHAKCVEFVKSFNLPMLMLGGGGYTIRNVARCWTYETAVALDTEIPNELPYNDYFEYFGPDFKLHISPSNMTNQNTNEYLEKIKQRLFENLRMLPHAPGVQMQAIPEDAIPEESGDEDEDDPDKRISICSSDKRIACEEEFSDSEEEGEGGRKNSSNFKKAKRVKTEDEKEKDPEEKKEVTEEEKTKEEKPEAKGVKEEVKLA

CN1CCc2c(c3ccccc3n2Cc2ccc(C(=O)NO)cc2)C1 [TUBASTATIN A]
Activity [1]: Active | Activity [2]: Non-Toxic | Activity [3]: Toxic

O=C(CCCCCCCN1C(=O)[C@@H]2CCC(=O)N2Cc2ccccc21)NO
IC50 [4]: 789 nM | IC50 [5]: 21.4 nM | Ratio IC50 [6]: 36.8 | IC50 [7]: 12.5 nM
